Where two headings read alike, the source gives them in different places.
Assays:
CfEcR-DEF mutant F48N = CfEcR-DEF mutant F48N (Choristoneura fumiferana, UniProt O77255, F331N); test: GAL4-driven luciferase reporter assay in NIH3T3 cells; assay type: cell-based
Experimental: (§1) This construct was prepared in the same way as in switch 1.1 above except wild-type CfEcR-DEF was replaced with mutant CfEcR-DEF comprising a ligand binding domain comprising a substitution mutation selected from Table 1 below.
(§2) DNAs were transfected into mouse NIH3T3 cells (ATCC) as follows. Standard methods for culture and maintenance of the cells were followed. Cells were harvested and plated 96-well plates at 2,500 cells per well, in 50 μL of growth medium containing 10% fetal bovine serum (FBS). Twenty-four hours later, the cells were treated with 35 μL of serum-free growth medium containing either dimethylsulfoxide (DMSO; control) or a DMSO solution of ligand. The cells were then transfected using Superfect (Qiagen Inc.) transfection reagent. For each well, 0.625 μL of Superfect was mixed with 14.2 μL of serum-free growth medium. 0.16 μg of reporter construct and 0.04 μg of each receptor construct were added to the transfection reagent mix. The contents of the transfection mix were mixed in a vortex mixer and let stand at room temperature for 30 minutes. At the end of incubation, 15 μL of transfection mix was added to the cells. The cells were maintained at 37° C. and 5% CO2 for 48 hours in 5% FBS.
(§3) Reporter Assays: Cells were harvested 40 hours after adding ligands. 125 μL of passive lysis buffer (part of Dual-Luciferase reporter assay system from Promega Corporation) were added to each well of the […] plate. The plates were placed on a rotary shaker for 15 minutes. Twenty μL of lysate were assayed. Luciferase activity was measured using Dual-Luciferase reporter assay system from Promega Corporation following the manufacturer's instructions. Fold induction (FI) activities were calculated by dividing relative light units (“RLU”) in ligand treated cells with RLU in DMSO treated cells (untreated control).

[1] = target: CfEcR-DEF mutant V107I/Y127E/T52V (Choristoneura fumiferana, UniProt O77255, T335V/V390I/Y410E); test: as above; assay type: cell-based
CfEcR-DEF mutant V107I/Y127E/T52V, sequence (P28702 299-449): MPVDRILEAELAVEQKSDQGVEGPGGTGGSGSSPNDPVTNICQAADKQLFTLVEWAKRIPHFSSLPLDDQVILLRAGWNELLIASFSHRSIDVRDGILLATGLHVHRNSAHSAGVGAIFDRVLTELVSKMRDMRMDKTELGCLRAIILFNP
CfEcR-DEF mutant V107I/Y127E/T52V, sequence (O77255 entry or part of it T335V/V390I/Y410E): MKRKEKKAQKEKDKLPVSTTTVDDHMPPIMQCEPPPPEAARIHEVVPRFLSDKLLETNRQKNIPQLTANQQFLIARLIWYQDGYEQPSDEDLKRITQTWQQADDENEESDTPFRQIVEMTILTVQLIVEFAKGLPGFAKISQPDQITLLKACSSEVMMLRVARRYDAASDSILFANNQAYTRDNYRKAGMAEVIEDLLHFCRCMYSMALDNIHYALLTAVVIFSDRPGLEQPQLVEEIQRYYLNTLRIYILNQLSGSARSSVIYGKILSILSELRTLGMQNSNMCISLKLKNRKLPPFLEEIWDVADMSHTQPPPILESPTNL
Experimental: as §1, §2, §3

CfEcR-DEF mutant M125W = CfEcR-DEF mutant M125W (Choristoneura fumiferana, UniProt O77255, M408W); test: as above; assay type: cell-based
CfEcR-DEF mutant M125W, sequence (O77255 entry or part of it M408W): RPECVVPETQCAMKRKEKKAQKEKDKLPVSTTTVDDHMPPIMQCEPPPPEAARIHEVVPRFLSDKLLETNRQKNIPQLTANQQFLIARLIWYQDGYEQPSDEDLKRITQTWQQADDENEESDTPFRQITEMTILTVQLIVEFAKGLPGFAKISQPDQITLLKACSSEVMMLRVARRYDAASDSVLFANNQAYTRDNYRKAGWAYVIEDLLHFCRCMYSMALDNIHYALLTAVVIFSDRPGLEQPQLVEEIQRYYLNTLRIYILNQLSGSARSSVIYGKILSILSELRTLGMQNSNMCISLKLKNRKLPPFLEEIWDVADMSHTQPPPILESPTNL
CfEcR-DEF mutant M125W, sequence (P28702 299-449, further chain): as the sequence (P28702 299-449) above
Experimental: as §1, §2, §3

[2] = target: CfEcR-DEF mutant T52V/A110P (Choristoneura fumiferana, UniProt O77255, A393P/T335V); test: as above; assay type: cell-based
CfEcR-DEF mutant T52V/A110P, sequence (O77255 entry or part of it T335V/A393P): as the sequence (O77255 entry or part of it T335V/V390I/Y410E) above, with I172V, A175P, E192Y counted along it
CfEcR-DEF mutant T52V/A110P, sequence (P28702 299-449, stated change not applied, further chain): as the sequence (P28702 299-449) above
Experimental: as §1, §2, §3

CfEcR-DEF mutant L234M = CfEcR-DEF mutant L234M (Choristoneura fumiferana, UniProt O77255, L517M); test: cell-based
Experimental: as §1, §2, §3

CfEcR-DEF mutant Y120W = CfEcR-DEF mutant Y120W (Choristoneura fumiferana, UniProt O77255, Y403W); test: cell-based
CfEcR-DEF mutant Y120W, sequence (O77255 entry or part of it Y403W): as the sequence (O77255 entry or part of it T335V/V390I/Y410E) above, with V117T, I172V, Y185W, E192Y counted along it
CfEcR-DEF mutant Y120W, sequence (P28702 299-449, further chain): as the sequence (P28702 299-449) above
Experimental: as §1, §2, §3

CfEcR-DEF mutant V96L = CfEcR-DEF mutant V96L (Choristoneura fumiferana, UniProt O77255, V379L); test: cell-based
Experimental: as §1, §2, §3

CfEcR-DEF mutant I51L = CfEcR-DEF mutant I51L (Choristoneura fumiferana, UniProt O77255, I334L); test: cell-based
CfEcR-DEF mutant I51L, sequence (O77255 entry or part of it I334L): as the sequence (O77255 entry or part of it M408W) above, with I128L, W202M counted along it
CfEcR-DEF mutant I51L, sequence (P28702 299-449, further chain): as the sequence (P28702 299-449) above
Experimental: as §1, §2, §3

CfEcR-DEF mutant M125E = CfEcR-DEF mutant M125E (Choristoneura fumiferana, UniProt O77255, M408E); test: cell-based
CfEcR-DEF mutant M125E, sequence (O77255 entry or part of it M408E): as the sequence (O77255 entry or part of it M408W) above, with W202E counted along it
CfEcR-DEF mutant M125E, sequence (P28702 299-449, further chain): as the sequence (P28702 299-449) above
Experimental: as §1, §2, §3

CfEcR-DEF mutant M54W = CfEcR-DEF mutant M54W (Choristoneura fumiferana, UniProt O77255, M337W); test: cell-based
CfEcR-DEF mutant M54W, sequence (O77255 entry or part of it M337W): as the sequence (O77255 entry or part of it M408W) above, with M131W, W202M counted along it
CfEcR-DEF mutant M54W, sequence (P28702 299-449, further chain): as the sequence (P28702 299-449) above
Experimental: as §1, §2, §3

CfEcR-DEF mutant W238P = CfEcR-DEF mutant W238P (Choristoneura fumiferana, UniProt O77255, W521P); test: cell-based
Experimental: as §1, §2, §3

CfEcR-DEF mutant V96W = CfEcR-DEF mutant V96W (Choristoneura fumiferana, UniProt O77255, V379W); test: cell-based
Experimental: as §1, §2, §3

CfEcR-DEF mutant T52E = CfEcR-DEF mutant T52E (Choristoneura fumiferana, UniProt O77255, T335E); test: cell-based
Experimental: as §1, §2, §3

CfEcR-DEF mutant R95W = CfEcR-DEF mutant R95W (Choristoneura fumiferana, UniProt O77255, R378W); test: cell-based
Experimental: as §1, §2, §3

CfEcR-DEF mutant A110W = CfEcR-DEF mutant A110W (Choristoneura fumiferana, UniProt O77255, A393W); test: cell-based
CfEcR-DEF mutant A110W, sequence (P28702 299-449, stated change not applied): as the sequence (P28702 299-449) above
CfEcR-DEF mutant A110W, sequence (O77255 entry or part of it A393W): as the sequence (O77255 entry or part of it M408W) above, with A187W, W202M counted along it
Experimental: as §1, §2, §3

CfEcR-DEF mutant M92L = CfEcR-DEF mutant M92L (Choristoneura fumiferana, UniProt O77255, M375L); test: cell-based
CfEcR-DEF mutant M92L, sequence (O77255 entry or part of it M375L): as the sequence (O77255 entry or part of it T335V/V390I/Y410E) above, with V117T, M157L, I172V, E192Y counted along it
CfEcR-DEF mutant M92L, sequence (P28702 299-449, further chain): as the sequence (P28702 299-449) above
Experimental: as §1, §2, §3

CfEcR-DEF mutant A110P = CfEcR-DEF mutant A110P (Choristoneura fumiferana, UniProt O77255, A393P); test: cell-based
Experimental: as §1, §2, §3

CfEcR-DEF mutant F48L = CfEcR-DEF mutant F48L (Choristoneura fumiferana, UniProt O77255, F331L); test: cell-based
Experimental: as §1, §2, §3

CfEcR-DEF mutant R95M = CfEcR-DEF mutant R95M (Choristoneura fumiferana, UniProt O77255, R378M); test: cell-based
Experimental: as §1, §2, §3

CfEcR-DEF mutant W238Y = CfEcR-DEF mutant W238Y (Choristoneura fumiferana, UniProt O77255, W521Y); test: cell-based
Experimental: as §1, §2, §3

CfEcR-DEF mutant F109N = CfEcR-DEF mutant F109N (Choristoneura fumiferana, UniProt O77255, F392N); test: cell-based
Experimental: as §1, §2, §3

[3] = NIH3T3, 40 h, read-out: Rel Max FI

CC(C)CC[C@@H](O)[C@](C)(O)[C@H]1CC[C@@]2(O)C3=CC(=O)[C@@H]4C[C@@H](O)[C@@H](O)C[C@]4(C)[C@H]3CC[C@]12C [PonA, ponasterone A]
Rel Max FI (CfEcR-DEF mutant F48N; mutant F48N): 0.17
EC50 (CfEcR-DEF mutant F48N; mutant F48N, read-out: EC50): ~20 µM
EC50 ([1]; mutant V107I/Y127E/T52V, read-out: EC50): ~1 µM
Rel Max FI ([1]; mutant V107I/Y127E/T52V, relative to max fold induction of GS-E ligand): 0.67
Rel Max FI (CfEcR-DEF mutant M125W; mutant M125W): 0
EC50 (CfEcR-DEF mutant M125W; mutant M125W, read-out: EC50): > 33 µM
EC50 ([2]; mutant T52V/A110P, read-out: EC50): > 33 µM
Rel Max FI ([2]; mutant T52V/A110P, relative to max fold induction of GS-E ligand): 0
Rel Max FI (CfEcR-DEF mutant L234M; mutant L234M): 0.02
EC50 (CfEcR-DEF mutant L234M; mutant L234M, read-out: EC50): > 33 µM
Rel Max FI (CfEcR-DEF mutant Y120W; mutant Y120W): 0.69
EC50 (CfEcR-DEF mutant Y120W; mutant Y120W, read-out: EC50): ~10 µM
Rel Max FI (CfEcR-DEF mutant V96L; mutant V96L): 0.49
EC50 (CfEcR-DEF mutant V96L; mutant V96L, read-out: EC50): 7.49 µM
Rel Max FI (CfEcR-DEF mutant I51L; mutant I51L): 0.66
EC50 (CfEcR-DEF mutant I51L; mutant I51L, read-out: EC50): ~8 µM
Rel Max FI (CfEcR-DEF mutant M125E; mutant M125E): 0
EC50 (CfEcR-DEF mutant M125E; mutant M125E, read-out: EC50): > 33 µM
Rel Max FI (CfEcR-DEF mutant M54W; mutant M54W): 0.46
EC50 (CfEcR-DEF mutant M54W; mutant M54W, read-out: EC50): ~10 µM
EC50 (CfEcR-DEF mutant W238P; mutant W238P, read-out: EC50): ~3.3 µM
Rel Max FI (CfEcR-DEF mutant W238P; mutant W238P, relative to max fold induction of GS-E ligand): 0.73
Rel Max FI (CfEcR-DEF mutant V96W; mutant V96W): 0.83
EC50 (CfEcR-DEF mutant V96W; mutant V96W, read-out: EC50): ~3.3 µM
Rel Max FI (CfEcR-DEF mutant T52E; mutant T52E): 0
EC50 (CfEcR-DEF mutant T52E; mutant T52E, read-out: EC50): > 33 µM
Rel Max FI (CfEcR-DEF mutant R95W; mutant R95W): 0
EC50 (CfEcR-DEF mutant R95W; mutant R95W, read-out: EC50): > 33 µM
Rel Max FI (CfEcR-DEF mutant A110W; mutant A110W): 0.01
EC50 (CfEcR-DEF mutant A110W; mutant A110W, read-out: EC50): > 33 µM
Rel Max FI (CfEcR-DEF mutant M92L; mutant M92L): 0
EC50 (CfEcR-DEF mutant M92L; mutant M92L, read-out: EC50): > 33 µM
EC50 (CfEcR-DEF mutant A110P; mutant A110P, read-out: EC50): > 33 µM
Rel Max FI (CfEcR-DEF mutant A110P; mutant A110P, relative to max fold induction of GS-E ligand): 0
EC50 (CfEcR-DEF mutant F48L; mutant F48L, read-out: EC50): ~10 µM
Rel Max FI (CfEcR-DEF mutant F48L; mutant F48L, relative to max fold induction of GS-E ligand): 0.59
Rel Max FI (CfEcR-DEF mutant R95M; mutant R95M): 0
EC50 (CfEcR-DEF mutant R95M; mutant R95M, read-out: EC50): > 33 µM
Rel Max FI (CfEcR-DEF mutant W238Y; mutant W238Y): 0.07
EC50 (CfEcR-DEF mutant W238Y; mutant W238Y, read-out: EC50): > 33 µM
Rel Max FI (CfEcR-DEF mutant F109N; mutant F109N): 0
EC50 (CfEcR-DEF mutant F109N; mutant F109N, read-out: EC50): > 33 µM

CCc1cccc(C(=O)NN(C(=O)c2cc(C)cc(C)c2)C(C)(C)C)c1C [RG-101691, 3,5-Dimethyl-benzoic acid N-tert-butyl-N′-(3-ethyl-2-methyl-benzoyl)-hydrazide]
EC50 (CfEcR-DEF mutant F48N): 1.73 µM
Emax (CfEcR-DEF mutant F48N; [3]): 88%
EC50 [1]: 0.02 µM
Emax [1, 3]: 88%
EC50 (CfEcR-DEF mutant M125W): 4.94 µM
Emax (CfEcR-DEF mutant M125W; [3]): 74%
EC50 [2]: 0.24 µM
Emax [2, 3]: 66%
EC50 (CfEcR-DEF mutant L234M): 1.79 µM
Emax (CfEcR-DEF mutant L234M; [3]): 77%
EC50 (CfEcR-DEF mutant Y120W): 9.76 µM
Emax (CfEcR-DEF mutant Y120W; [3]): 89%
EC50 (CfEcR-DEF mutant V96L): 1.68 µM
Emax (CfEcR-DEF mutant V96L; [3]): 62%
EC50 (CfEcR-DEF mutant I51L): 2.28 µM
Emax (CfEcR-DEF mutant I51L; [3]): 88%
EC50 (CfEcR-DEF mutant M125E): 0.98 µM
Emax (CfEcR-DEF mutant M125E; [3]): 53%
EC50 (CfEcR-DEF mutant M54W): 1.63 µM
Emax (CfEcR-DEF mutant M54W; [3]): 75%
EC50 (CfEcR-DEF mutant W238P): 0.65 µM
Emax (CfEcR-DEF mutant W238P; [3]): 91%
EC50 (CfEcR-DEF mutant V96W): 3.61 µM
Emax (CfEcR-DEF mutant V96W; [3]): 75%
EC50 (CfEcR-DEF mutant T52E): ~7 µM
Emax (CfEcR-DEF mutant T52E; [3]): 57%
EC50 (CfEcR-DEF mutant R95W): ~10 µM
Emax (CfEcR-DEF mutant R95W; [3]): 37%
EC50 (CfEcR-DEF mutant A110W): 1.06 µM
Emax (CfEcR-DEF mutant A110W; [3]): 80%
EC50 (CfEcR-DEF mutant M92L): 9.9 µM
Emax (CfEcR-DEF mutant M92L; [3]): 41%
EC50 (CfEcR-DEF mutant A110P): 0.67 µM
Emax (CfEcR-DEF mutant A110P; [3]): 89%
EC50 (CfEcR-DEF mutant F48L): 0.3 µM
Emax (CfEcR-DEF mutant F48L; [3]): 81%
EC50 (CfEcR-DEF mutant R95M): 3.3 µM
Emax (CfEcR-DEF mutant R95M; [3]): 57%
EC50 (CfEcR-DEF mutant W238Y): > 33 µM
Emax (CfEcR-DEF mutant W238Y; [3]): 30%
EC50 (CfEcR-DEF mutant F109N): 3.95 µM
Emax (CfEcR-DEF mutant F109N; [3]): 85%

Source: US9163256B2, “Mutant receptors and their use in a nuclear receptor-based inducible gene expression system” (priority 2004, dated 2015)
